Measurements: patent publication US10344019B2 (priority 2010, dated 2019)
pEC50: −log10 of the molar value. Where two headings read alike, the source gives them in different places.

Key:
Format in all cases: cell-based
[1] = system: HCV 1a RLuc cells (dicistronic genotype 1a H77 replicon, RLuc reporter); experiment: microbe, parasite or virus in culture; conditions: Hepatitis C virus, read-out: 1a
Procedure, shortened: (§1)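 Replicons used: genotype 1b Con1, 1a H77, 2a JFH-1, and a 2a JFH-1 chimera with J6-strain NS5A (M31 present), all dicistronic.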

[2] = system: HCV 4a Rluc cells (NS5A chimeric genotype 1b Con1 replicon with genotype 4a NS5A gene); experiment: microbe, parasite or virus in culture; conditions: Hepatitis C virus, read-out: 4a
Procedure, shortened: (§2)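 Replicon cells stably carrying the listed RLuc-encoding dicistronic replicons were seeded and treated with DMSO serial dilutions of compound (10 mM stocks) diluted into culture medium. After 72 h, cells were lysed and Renilla luciferase activity measured. EC50 was derived by non-linear regression.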

[3] = system: HCV 3a RLuc cells (NS5A chimeric genotype 1b Con1 replicon with consensus genotype 3a NS5A gene); experiment: microbe, parasite or virus in culture; conditions: Hepatitis C virus
Procedure, shortened: as §2

[4] = system: HCV 2a JFH-1 Rluc cells (dicistronic genotype 2a JFH-1 replicon, RLuc reporter); experiment: microbe, parasite or virus in culture; conditions: Hepatitis C virus, read-out: 2a JFH
Procedure, shortened: as §1

[5] = system: HCV 2b Rluc cells (NS5A chimeric genotype 2a JFH-1 replicon with genotype 2b MD2b-1 NS5A gene, M31 present); experiment: microbe, parasite or virus in culture; conditions: Hepatitis C virus, read-out: 2b
Procedure, shortened: as §2

[6] = system: HCV 1b RLuc cells (dicistronic genotype 1b Con1 replicon, RLuc reporter); experiment: microbe, parasite or virus in culture; conditions: Hepatitis C virus, read-out: 1b (nM)
Procedure, shortened: as §1

[7] = system: HCV 2a Rluc cells (NS5A chimeric genotype 2a JFH-1 replicon with genotype 2a J6 strain NS5A gene, M31 present); experiment: HCV replicon reporter assay, genotype 2a J6 (M31 present); conditions: Hepatitis C virus, read-out: 2a J6
Procedure, shortened: as §1

[8] = 72 h, Table 1, genotype 1a H77 replicon, 72 hours
[9] = read-out: 3a, Table 1, genotype 3a NS5A chimeric replicon
[10] = 72 h, Table 1, genotype 2a JFH-1 replicon, 72 hours
[11] = read-out: 3a, genotype 3a replicon
[12] = genotype 2a JFH-1 RLuc replicon

SMILES | pEC50 [1, 8] | pEC50 [2] | pEC50 [3, 9] | pEC50 [4, 10] | pEC50 [5] | EC50 ([6]; 72 h) [nM] | pEC50 [7] | pEC50 ([1]; genotype 1a replicon) | pEC50 [3, 11] | pEC50 ([4]; genotype 2a JFH-1 replicon) | pEC50 ([1]; genotype 1a H77 RLuc replicon) | pEC50 [4, 12] | EC50 [6] [nM]
COC(=O)N[C@H](C(=O)N1CCC[C@H]1c1ncc(-c2ccc3c4c(ccc3c2)-c2ccc(-c3cnc([C@@H]5CCCN5C(=O)[C@H](NC(=O)OC)c5ccccc5)[nH]3)cc2CO4)[nH]1)C(C)C [Example 1] | 9.00 to 12.00 | 9.00 to 12.00 | 9.00 to 12.00 | 9.00 to 12.00 | < 7.36 | 0.008 | < 7.36 | – | – | – | – | – | –
COC(=O)N[C@H](C(=O)N1CCC[C@H]1c1ncc(-c2ccc3c(c2)COc2c-3ccc3cc(-c4cnc([C@@H]5CCCN5C(=O)[C@H](NC(=O)OC)c5ccccc5)[nH]4)ccc23)[nH]1)C(C)C [Example 2] | 9.00 to 12.00 | 9.00 to 12.00 | 9.00 to 12.00 | 9.00 to 12.00 | < 7.36 | 0.005 | < 7.36 | – | – | – | – | – | –
COC(=O)N[C@H](C(=O)N1CCC[C@H]1c1ncc(-c2ccc3c4c(ccc3c2)-c2ccc(-c3cnc([C@@H]5CCCN5C(=O)[C@@H](NC(=O)OC)C5CCOCC5)[nH]3)cc2CO4)[nH]1)C(C)C [Example 8] | 9.00 to 12.00 | 9.00 to 12.00 | 8.30 to 9.00 | 9.00 to 12.00 | < 7.36 | 0.006 | < 7.36 | – | – | – | – | – | –
COC(=O)N[C@H](C(=O)N1CCC[C@H]1c1ncc(-c2cc3c4c(c2)OCc2cc(-c5cnc([C@@H]6CCCN6C(=O)[C@@H](NC(=O)OC)C(C)C)[nH]5)cc(c2-4)OC3)[nH]1)C(C)C [Example 9] | 9.00 to 12.00 | 9.00 to 12.00 | 9.00 to 12.00 | 9.00 to 12.00 | 7.36 to 9.00 | 0.022 | < 7.36 | – | – | – | – | – | –
CC[C@H](NC(=O)OC)C(=O)N1CCC[C@H]1c1ncc(-c2ccc3c4c(ccc3c2)-c2ccc(-c3cnc([C@@H]5CCCN5C(=O)[C@H](NC(=O)OC)c5ccccc5)[nH]3)cc2CO4)[nH]1 [Example 12] | 9.00 to 12.00 | 9.00 to 12.00 | 9.00 to 12.00 | 9.00 to 12.00 | < 7.36 | 0.008 | < 7.36 | – | – | – | – | – | –
O=C([C@H](Nc1ncccn1)c1ccccc1)N1CCC[C@H]1c1ncc(-c2cc3c4c(c2)OCc2cc(-c5cnc([C@@H]6CCCN6C(=O)[C@H](Nc6ncccn6)c6ccccc6)[nH]5)cc(c2-4)OC3)[nH]1 [Example 463] | – | < 8.30 | – | – | < 7.36 | – | < 7.36 | 7.36 to 9.00 | 8.30 to 9.00 | 7.36 to 9.00 | – | – | –
CN1CCN(C(=O)N[C@@H](C(=O)N2CCC[C@H]2c2ncc(-c3cc4c5c(c3)OCc3cc(-c6cnc([C@@H]7CCCN7C(=O)[C@H](NC(=O)N7CCN(C)CC7)c7ccccc7)[nH]6)cc(c3-5)OC4)[nH]2)c2ccccc2)CC1 [Example 464] | – | < 8.30 | – | – | < 7.36 | – | 7.36 to 9.00 | < 7.36 | 8.30 to 9.00 | 7.36 to 9.00 | – | – | –
CN(C)CCC(=O)N[C@@H](C(=O)N1CCC[C@H]1c1ncc(-c2cc3c4c(c2)OCc2cc(-c5cnc([C@@H]6CCCN6C(=O)[C@H](NC(=O)CCN(C)C)c6ccccc6)[nH]5)cc(c2-4)OC3)[nH]1)c1ccccc1 [Example 467] | – | < 8.30 | – | – | < 7.36 | – | < 7.36 | < 7.36 | < 8.30 | < 7.36 | – | – | –
CC[C@H](C)[C@H](NC(=O)OC)C(=O)N1[C@@H]2C[C@@H]2C[C@H]1c1nc2ccc3cc(-c4ccc5c(ccc6nc([C@@H]7C[C@H](COC)CN7C(=O)[C@H](NC(=O)OC)c7ccccc7)[nH]c65)c4)ccc3c2[nH]1 [Example 529] | – | 9.00 to 12.00 | – | – | 9.00 to 12.00 | – | 9.00 to 12.00 | – | – | – | 9.00 to 12.00 | 9.00 to 12.00 | 0.013
COC[C@H]1C[C@@H](c2nc3ccc4cc(-c5ccc6c(ccc7nc([C@@H]8C[C@H]9C[C@H]9N8C(=O)[C@@H](NC(=O)OC)C(C)(C)C)[nH]c76)c5)ccc4c3[nH]2)N(C(=O)[C@H](NC(=O)OC)c2ccccc2)C1 [Example 530] | – | 9.00 to 12.00 | – | – | 9.00 to 12.00 | – | 9.00 to 12.00 | – | – | – | 9.00 to 12.00 | 9.00 to 12.00 | 0.011
